# Results from ChEMBL document CHEMBL3286201, “Antileishmanial activity of a series of N²,N⁴-disubstituted quinazoline-2,4-diamines” (J Med Chem, 2014).
# Experiments:
# [1] = Selectivity index, ratio of EC50 for mouse J774A1 cells to EC50 for intracellular amastigote stage of Leishmania donovani MHOM/ET/67/L82; format: toxicity, cell-based, J774.A1; conditions: read-out: Ratio EC50
# Leishmania donovani = assay: Antileishmanial activity against intracellular amastigote stage of Leishmania donovani MHOM/ET/67/L82 infected in mouse J774A1 cells by colorimetric assay; format: functional, organism-based; conditions: MHOM/ET/67/L82, J774.A1
# Leishmania amazonensis = assay: Antileishmanial activity against intracellular amastigote stage of Leishmania amazonensis LV78 infected in mouse J774A1 cells by colorimetric assay; format: functional, organism-based; conditions: LV78, J774.A1
# [2] = Aqueous solubility of the compound at pH 7.4; format: physicochemical; conditions: buffer
# [3] = Cytotoxicity against mouse J774A1 cells after 72 hrs by MTT assay; format: cell-based; conditions: J774.A1, 72 h
# [4] = Distribution coefficient, log D of the compound at pH 7.4; format: physicochemical; conditions: octanol/water
# [5] = pampa, pH 4
# Description: Passive transcellular permeability of the compound at pH 4 by PAMPA
# [6] = pampa, pH 7.4
# Description: Passive transcellular permeability of the compound at pH 7.4 by PAMPA
# [7] = Aqueous solubility of the compound at pH 2; format: physicochemical; conditions: buffer
# [8] = Distribution coefficient, log D of the compound at pH 3; format: physicochemical; conditions: octanol/water
SMILES,selectivity ratio [1],EC50 (Leishmania donovani),EC50 (Leishmania amazonensis),solubility [2],EC50 [3],logD [4],permeability [5],permeability [6],solubility [7],logD [8]
CCCCNc1nc(NCc2ccccc2)c2ccccc2n1,7.8,0.65 µM,1.8 µM,≤ 10 µM,5.1 µM,,,,,
CC(C)Nc1nc(NCc2ccco2)c2ccccc2n1,6.8,2.5 µM,3.7 µM,≥ 30 µM,17 µM,3.15,62.2 ×10⁻⁶ cm/s,883 ×10⁻⁶ cm/s,≥ 30 µM,2.18
CC(C)Nc1nc(NCC(F)(F)F)c2ccccc2n1,> 8.9,3.7 µM,7.6 µM,≥ 30 µM,> 33 µM,3.19,19.7 ×10⁻⁶ cm/s,780 ×10⁻⁶ cm/s,≥ 30 µM,2.4
Cc1ccc2nc(NC(C)C)nc(NCc3ccco3)c2c1,> 7,4.7 µM,15 µM,≤ 20 µM,> 33 µM,3.63,67.2 ×10⁻⁶ cm/s,789 ×10⁻⁶ cm/s,≥ 30 µM,1.55
COc1ccc2c(NCc3ccco3)nc(NC(C)C)nc2c1,13,1.2 µM,10 µM,≤ 20 µM,16 µM,3.7,59.2 ×10⁻⁶ cm/s,1330 ×10⁻⁶ cm/s,≥ 30 µM,3.11
CC(C)Nc1nc(NCc2ccco2)c2c(Cl)cccc2n1,11,2.3 µM,12 µM,≤ 10 µM,25 µM,4.44,169 ×10⁻⁶ cm/s,1240 ×10⁻⁶ cm/s,≥ 30 µM,2.62
CSCCNc1nc(NC(C)C)nc2ccccc12,4.7,4.3 µM,5.1 µM,≤ 20 µM,20 µM,3.02,28.8 ×10⁻⁶ cm/s,1480 ×10⁻⁶ cm/s,≥ 30 µM,2.06
COc1cc([C@@H]2c3cc4c(cc3[C@H](O)[C@H]3COC(=O)[C@H]23)OCO4)cc(OC)c1OC [PODOFILOX],,,,,0.25 µM,,,,,
CC(C)Nc1nc(NCc2ccco2)c2cc(Cl)ccc2n1,> 13,2.6 µM,25 µM,≤ 20 µM,> 33 µM,3.99,170 ×10⁻⁶ cm/s,1630 ×10⁻⁶ cm/s,≥ 30 µM,2.6
COc1cccc2nc(NC(C)C)nc(NCc3ccco3)c12,19,0.97 µM,2.7 µM,≤ 20 µM,18 µM,3.35,87 ×10⁻⁶ cm/s,624 ×10⁻⁶ cm/s,≥ 30 µM,2.53
COc1cccc2c(NCc3ccco3)nc(NC(C)C)nc12,9.4,3.2 µM,7.3 µM,≤ 20 µM,30 µM,3.4,38.4 ×10⁻⁶ cm/s,1060 ×10⁻⁶ cm/s,≥ 30 µM,2.99
c1ccc(CNc2nc(NCc3ccccc3)c3ccccc3n2)cc1,8.2,0.67 µM,1.4 µM,≤ 5 µM,5.5 µM,,,,≤ 20 µM,
CC(C)Nc1nc(N(C)C)c2ccccc2n1,> 3.7,8.9 µM,19 µM,≤ 10 µM,> 33 µM,3.13,72.3 ×10⁻⁶ cm/s,1120 ×10⁻⁶ cm/s,≥ 30 µM,1.64
CNc1nc(NCc2ccccc2)c2ccccc2n1,12,1.5 µM,13 µM,≥ 30 µM,18 µM,3.14,,,≥ 30 µM,2.11
c1ccc(CNc2nc(Nc3ccccc3)nc3ccccc23)cc1,11,0.64 µM,2.6 µM,≤ 5 µM,6.8 µM,4.17,271 ×10⁻⁶ cm/s,1480 ×10⁻⁶ cm/s,≤ 5 µM,2.78
CC(C)Nc1nc(NCc2ccco2)c2ccc(Cl)cc2n1,> 11,9 µM,23 µM,≤ 20 µM,> 100 µM,3.91,103 ×10⁻⁶ cm/s,1380 ×10⁻⁶ cm/s,≥ 30 µM,2.51
CC(C)Nc1nc(NC2CCCCC2)c2ccccc2n1,,> 50 µM,> 50 µM,≤ 20 µM,,,,,,
Cc1cccc2nc(NC(C)C)nc(NCc3ccco3)c12,21,0.95 µM,3.6 µM,≤ 10 µM,20 µM,3.55,45.9 ×10⁻⁶ cm/s,812 ×10⁻⁶ cm/s,≥ 30 µM,2.44
Cc1cccc2c(NCc3ccco3)nc(NC(C)C)nc12,> 7.9,4.2 µM,4.4 µM,≤ 20 µM,> 33 µM,3.55,45.9 ×10⁻⁶ cm/s,666 ×10⁻⁶ cm/s,≥ 30 µM,1.57
CCOC(=O)CNc1nc(NC(C)C)nc2ccccc12,> 4.8,6.9 µM,20 µM,≤ 20 µM,> 33 µM,2.54,38.8 ×10⁻⁶ cm/s,744 ×10⁻⁶ cm/s,≥ 30 µM,1.73
FC(F)(F)CNc1nc(NCc2ccco2)c2ccccc2n1,6.4,3.6 µM,5.8 µM,≤ 10 µM,23 µM,4.2,67.7 ×10⁻⁶ cm/s,979 ×10⁻⁶ cm/s,≥ 30 µM,2.02
COc1ccc2nc(NC(C)C)nc(NCc3ccco3)c2c1,19,0.74 µM,9.6 µM,≥ 30 µM,14 µM,3.58,80.2 ×10⁻⁶ cm/s,1010 ×10⁻⁶ cm/s,≥ 30 µM,2.95
CC(C)Nc1nc(NCc2ccco2)c2cccc(Cl)c2n1,> 7.5,4.4 µM,18 µM,≤ 5 µM,> 33 µM,3.96,67.6 ×10⁻⁶ cm/s,1330 ×10⁻⁶ cm/s,≥ 30 µM,2.38
c1ccc(CNc2nc(Nc3ccccc3)c3ccccc3n2)cc1,20,0.26 µM,2.2 µM,≤ 5 µM,5.2 µM,4.25,412 ×10⁻⁶ cm/s,663 ×10⁻⁶ cm/s,≥ 30 µM,2.67
